# Measurements as given in paper PMC9841532, “Exploring the Effect of Halogenation in a Series of Potent and Selective A2B Adenosine Receptor Antagonists” (Journal of Medicinal Chemistry, 2022).
# Like-named read-outs stand apart in the source and are kept apart here.
# Key:
# hA2AAR = molecular target: T1, hA2AAR (Homo sapiens, UniProt P29274); assay: Radioligand binding competition, [3H]ZM241385, membranes from HeLa-A2A cells; details: for % at 1 μM hA2A (percentage displacement of specific binding): [3H]ZM241385, human HeLa cells, n = 2
# T1 construct: expressed in transfected cells; host or cells: HeLa (HeLa-A2A) cell membranes
# Description: (§1) All ligands reported in Tables 1–5 were obtained and tested as racemic mixtures. The whole set was evaluated in silico with a combination of a Rdkit[37] PAINS filter and Instant JChem from Chemaxon (https://www.chemaxon.com), to rule out the possibility that these ligands can be promiscuous pan-assay interference compounds (PAINS) and to assess their bioavailability, respectively. […] The stereoisomers of selected compounds were obtained by chiral resolution and tested at the four human AR subtypes in their enantiopure forms (Table 6).
# (§2) A brief description is given below. […] Non-specific binding was determined in the presence of 10 μM R-PIA. The reaction mixture was incubated at 25 °C for 60 min. […] The reaction mixture was incubated at 25 °C for 30 min. […] The reaction mixture was incubated at 25 °C for 30 min. […] Non-specific binding was determined in the presence of 100 μM R-PIA. […] After the incubation time, membranes were washed and filtered and radioactivity was detected in a MicroBeta TriLux reader (PerkinElmer).
# hA1AR = molecular target: T2, hA1AR (Homo sapiens, UniProt P30542); assay: Radioligand binding competition, [3H]DPCPX, membranes from CHO-A1 cells; details: 1 μM, [3H]DPCPX, human CHO cells, n = 2
# T2 sequence (P30542 1-326): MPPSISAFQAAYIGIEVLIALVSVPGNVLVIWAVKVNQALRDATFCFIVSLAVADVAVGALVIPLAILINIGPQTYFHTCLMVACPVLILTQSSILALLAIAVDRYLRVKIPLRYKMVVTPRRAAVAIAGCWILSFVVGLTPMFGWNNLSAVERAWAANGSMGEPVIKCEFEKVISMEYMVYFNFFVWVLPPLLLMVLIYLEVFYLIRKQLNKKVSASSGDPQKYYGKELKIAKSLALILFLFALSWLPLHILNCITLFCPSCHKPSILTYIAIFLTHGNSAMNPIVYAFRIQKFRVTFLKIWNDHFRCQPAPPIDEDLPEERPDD
# Description: as §1, §2
# hA3AR = molecular target: T3, hA3AR (Homo sapiens, UniProt P0DMS8); assay: Radioligand binding competition, [3H]NECA, membranes from HeLa-A3 cells; details: for % at 1 μM hA3 (percentage displacement of specific binding): [3H]NECA, human HeLa cells, n = 2
# T3 construct: expressed in transfected cells; host or cells: HeLa (HeLa-A3) cell membranes
# T3 sequence (P0DMS8 1-318): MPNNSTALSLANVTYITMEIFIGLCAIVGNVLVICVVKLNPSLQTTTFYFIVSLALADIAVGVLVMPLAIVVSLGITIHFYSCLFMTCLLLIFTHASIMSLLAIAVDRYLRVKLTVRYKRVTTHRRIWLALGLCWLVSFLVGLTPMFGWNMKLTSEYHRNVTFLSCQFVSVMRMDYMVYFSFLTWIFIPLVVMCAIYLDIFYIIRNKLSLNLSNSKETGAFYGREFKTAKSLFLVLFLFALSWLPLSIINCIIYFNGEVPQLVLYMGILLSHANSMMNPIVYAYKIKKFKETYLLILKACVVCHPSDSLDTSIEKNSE
# Description: as §1, §2
# hA2BAR = molecular target: T4, hA2BAR (Homo sapiens, UniProt P29275); assay: Radioligand binding competition, [3H]DPCPX, membranes from HEK-293-A2B cells; design: Exp. dG: unit not given here; details: for % at 1 μM hA2B (percentage displacement of specific binding): [3H]DPCPX, human HEK-293 cells, n = 2; for Ki: read-out: Ki hA2B; for Exp. dG: experimental binding free energy, Supplementary Table S3, unit not given (errors in kcal/mol)
# T4 construct: host or cells: HEK-293 (HEK-293-A2B) cell membranes
# T4 sequence (P29275 1-332): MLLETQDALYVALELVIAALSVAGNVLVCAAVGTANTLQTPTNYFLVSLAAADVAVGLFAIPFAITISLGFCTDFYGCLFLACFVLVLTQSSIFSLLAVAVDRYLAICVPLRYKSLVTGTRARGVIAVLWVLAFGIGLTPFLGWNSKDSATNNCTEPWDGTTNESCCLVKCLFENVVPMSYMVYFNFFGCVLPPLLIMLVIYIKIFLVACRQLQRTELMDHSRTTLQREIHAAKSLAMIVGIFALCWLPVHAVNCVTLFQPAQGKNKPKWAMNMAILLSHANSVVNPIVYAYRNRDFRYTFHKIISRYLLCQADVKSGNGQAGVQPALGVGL
# Description: as §1, §2
# [1] = displacement of specific [3H]DPCPX binding in human HEK-293 cells, n = 3
# T1 sequence (P29274 whole entry): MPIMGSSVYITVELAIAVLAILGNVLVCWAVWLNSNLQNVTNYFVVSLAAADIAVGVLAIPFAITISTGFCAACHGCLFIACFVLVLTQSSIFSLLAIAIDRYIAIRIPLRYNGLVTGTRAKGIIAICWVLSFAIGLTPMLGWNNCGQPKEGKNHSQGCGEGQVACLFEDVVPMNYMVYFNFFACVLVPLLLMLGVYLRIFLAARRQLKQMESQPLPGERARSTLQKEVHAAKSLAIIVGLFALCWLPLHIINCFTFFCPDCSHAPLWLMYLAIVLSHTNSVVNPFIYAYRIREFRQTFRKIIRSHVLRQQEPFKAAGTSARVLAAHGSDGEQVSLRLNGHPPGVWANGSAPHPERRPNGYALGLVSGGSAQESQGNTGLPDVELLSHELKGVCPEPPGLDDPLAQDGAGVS
Compound,% at 1 μM hA2A (percentage displacement of specific binding) (hA2AAR) [%],% at 1 μM hA1 (percentage displacement of specific binding) (hA1AR) [%],% at 1 μM hA3 (percentage displacement of specific binding) (hA3AR) [%],% at 1 μM hA2B (percentage displacement of specific binding) (hA2BAR) [%],Ki (hA2BAR; [1]) [nM],Exp. dG (hA2BAR),Ki (hA2BAR) [nM],"Ki (hA2AAR; displacement of specific [3H]ZM241385 binding in human HeLa cells, n = 3, read-out: Ki hA2A) [nM]","Ki (hA3AR; displacement of specific [3H]NECA binding in human HeLa cells, n = 3, read-out: Ki hA3) [nM]",Ki hA2B (hA2BAR; [1])
CC1=C(C(=O)OC(C)C)[C@H](c2ccco2)n2c(nc3cc(F)ccc32)N1 [(R)-16b],5,15,19,41,–,–,–,–,–,–
CC1=C(C(=O)OC(C)C)C(c2ccoc2)n2c(nc3cc(F)c(F)cc32)N1 (stereo not drawn) [14d],16,17,20,–,52.9 ± 1.5,–,–,–,–,–
CCOC(=O)C1=C(C)Nc2nc3cc(F)ccc3n2C1c1cccs1 (stereo not drawn) [16e],3,1,3,–,724 ± 8,–,–,–,–,–
CC1=C(C(=O)OC(C)C)C(c2cccs2)n2c(nc3cc(Br)c(Br)cc32)N1 (stereo not drawn) [14v],1,1,3,9,–,–,–,–,–,–
CCOC(=O)C1=C(C)Nc2nc3cc(Cl)ccc3n2C1c1cocn1 (stereo not drawn) [18c],13,30,15,–,8.6 ± 0.4,-11,< 10,–,–,–
CC1=C(C(=O)OC(C)C)C(c2ccsc2)n2c(nc3cc(Br)ccc32)N1 (stereo not drawn) [16x],1,2,4,–,61.1 ± 1.8,–,–,–,–,–
CC1=C(C(=O)OC(C)C)C(c2cccs2)n2c(nc3cc(Cl)c(Cl)cc32)N1 (stereo not drawn) [14n],4,1,9,1,–,–,–,–,–,–
"CC1=C(C(=O)OC(C)C)C(c2cocn2)n2c(nc3ccccc32)N1 (stereo not drawn) [X, reference compound]",–,–,–,–,–,-10.04,–,–,–,–
CCOC(=O)C1=C(C)Nc2nc3cc(Cl)ccc3n2C1c1ccco1 (stereo not drawn) [16i],10,23,4,–,8.42 ± 1.4,-11.01,< 10,–,–,–
CCOC(=O)C1=C(C)Nc2nc3ccc(Cl)cc3n2C1c1ccco1 (stereo not drawn) [15i],2,26,4,18,–,–,–,–,–,–
CCOC(=O)C1=C(C)Nc2nc3ccc(Cl)cc3n2C1c1cccs1 (stereo not drawn) [15m],3,2,1,1,–,–,–,–,–,–
CC1=C(C(=O)OC(C)C)C(c2ccsc2)n2c(nc3cc(Cl)ccc32)N1 (stereo not drawn) [16p],7,7,4,–,165 ± 9,–,–,–,–,–
CC1=C(C(=O)OC(C)C)C(c2cccs2)n2c(nc3cc(Cl)ccc32)N1 (stereo not drawn) [16n],2,2,1,–,837 ± 11,-8.286,–,–,–,–
CCOC(=O)C1=C(C)Nc2nc3ccc(F)cc3n2C1c1cocn1 (stereo not drawn) [17a],4,43,26,–,44.7 ± 1.4,-10.02,–,–,–,–
CCOC(=O)C1=C(C)Nc2nc3cc(Br)ccc3n2C1c1cccs1 (stereo not drawn) [16u],3,6,6,55,–,–,–,–,–,–
CCOC(=O)C1=C(C)Nc2nc3cc(Br)ccc3n2C1c1ccco1 (stereo not drawn) [16q],29,18,33,–,26.9 ± 0.8,–,–,–,–,–
CC1=C(C(=O)OC(C)C)C(c2cccs2)n2c(nc3ccc(Cl)cc32)N1 (stereo not drawn) [15n],3,1,1,7,–,–,–,–,–,–
CCOC(=O)C1=C(C)Nc2nc3cc(F)ccc3n2C1c1cocn1 (stereo not drawn) [18a],16,25,16,–,14.7 ± 1.1,-10.68,–,–,–,–
CCOC(=O)C1=C(C)Nc2nc3cc(Cl)ccc3n2[C@H]1c1cocn1 [(R)-18c],32,9,15,26,–,–,–,–,–,–
CCOC(=O)C1=C(C)Nc2nc3cc(F)c(F)cc3n2C1c1ccsc1 (stereo not drawn) [14g],1,1,5,–,519 ± 7,–,–,–,–,–
CCOC(=O)C1=C(C)Nc2nc3cc(Cl)ccc3n2[C@@H]1c1cocn1 [(S)-18c],17,22,6,–,3.39 ± 0.2,–,–,–,–,–
CC1=C(C(=O)OC(C)C)C(c2ccoc2)n2c(nc3cc(Br)ccc32)N1 (stereo not drawn) [16t],–,2,2,–,8.2 ± 1.1,–,< 10,509 ± 6,–,–
CC1=C(C(=O)OC(C)C)C(c2ccoc2)n2c(nc3cc(Br)c(Br)cc32)N1 (stereo not drawn) [14t],1,1,9,32,–,–,–,–,–,–
CC1=C(C(=O)OC(C)C)[C@@H](c2ccco2)n2c(nc3cc(Br)ccc32)N1 [(S)-16r],–,32,6,–,2.97 ± 0.4,–,–,–,–,–
"Nc1nc(NCCc2ccc(O)cc2)nc2nc(-c3ccco3)nn12 [ZM241385, 4-(2-[7-amino-2-(2-furyl)[1,2,4]triazolo[2,3-a][1,3,5]triazin-5-ylamino]ethyl)phenol, reference compound]",–,–,–,–,–,–,–,–,863 ± 4,–
CC1=C(C(=O)OC(C)C)[C@@H](c2ccco2)n2c(nc3cc(F)ccc32)N1 [(S)-16b],–,26,12,–,0.94 ± 0.1,–,–,–,–,sub-nanomolar
CCOC(=O)C1=C(C)Nc2nc3cc(Br)ccc3n2[C@@H]1c1ccoc1 [(R)-16s],–,10,14,–,1.17 ± 0.1,–,–,–,–,–
